Experimental data: PubChem BioAssay (NCI)
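Protocol summary: plate cells (96-well), add compound at 5 concentrations, incubate 48 h, interpolate endpoints linearly. GI50: concentration for 50% inhibition of growth. At the TGI there is no net growth.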

Assays:
Assay in all cases: NCI-60 cell line screen, 48 h
A498 renal = tested on: A498 renal
HCT-116 colon = tested on: HCT-116 colon
HCT-15 colon = tested on: HCT-15 colon
KM12 colon = tested on: KM12 colon
MDA-MB-435 = tested on: MDA-MB-435
SK-MEL-5 melanoma = tested on: SK-MEL-5 melanoma
TK-10 renal = tested on: TK-10 renal

Row | SMILES | GI50 (A498 renal) | TGI (A498 renal) | GI50 (HCT-116 colon) | TGI (HCT-116 colon) | GI50 (HCT-15 colon) | TGI (HCT-15 colon) | GI50 (KM12 colon) | TGI (KM12 colon) | GI50 (MDA-MB-435) | TGI (MDA-MB-435) | GI50 (SK-MEL-5 melanoma) | TGI (SK-MEL-5 melanoma) | GI50 (TK-10 renal) | TGI (TK-10 renal)
1 | N#C/C(=C\c1ccsc1)c1nc2ccccc2o1 | 33.6 µM | > 100 µM | 35.7 µM | > 100 µM | > 100 µM | > 100 µM | > 100 µM | > 100 µM | > 100 µM | > 100 µM | 58.8 µM | > 100 µM | 21.1 µM | 70.5 µM
2 | NC(=O)N/N=C1/CCC(O)CC1CC(=O)O (stereo unspecified) |  | > 100 µM |  | > 100 µM |  | > 100 µM |  | > 100 µM |  | > 100 µM |  | > 100 µM |  | > 100 µM
3 | Cc1cc2c(C(C)C)c(O)c(O)cc2c(O)c1-c1c(C)cc2c(C(C)C)c(O)c(O)cc2c1O | 14.1 µM | 32.2 µM | 3.98 µM | 14 µM | 5.31 µM | 20.9 µM | 11.6 µM | 27.2 µM | 14.5 µM | 31.3 µM | 12.6 µM | 26 µM | 13.6 µM | 83.4 µM
4 | COc1ccc2c(c1)NC1=C(C(=O)OC1)C2c1cc(OC)c2c(c1)OCO2 (stereo unspecified) | < 0.0146 µM | 0.0437 µM | < 0.0182 µM |  | 0.0319 µM | > 100 µM |  |  | < 0.0123 µM | 0.0322 µM | 0.021 µM | 0.0523 µM | 60.7 µM | > 100 µM
5 | O=C(C/C(=N/O)C(=O)NC1=C(Cl)C(=O)c2ccccc2C1=O)CC(c1ccccc1)c1c(O)c2ccccc2oc1=O (stereo unspecified) |  | > 100 µM |  | 20.6 µM |  | 14.4 µM |  | 17.8 µM |  | 4.72 µM |  | 2.38 µM |  | 
6 | C=C1C(O)C2C(=C(CC)C13CC3)C(=O)C(C)(C)C2OC (stereo unspecified) | > 100 µM | > 100 µM | 28.3 µM | > 100 µM | 59 µM | > 100 µM | 60.9 µM | > 100 µM | > 100 µM | > 100 µM | 42.6 µM | > 100 µM | > 100 µM | > 100 µM
7 | COc1cc(OC)c2nc(C)c3c(c2c1)SCC3 |  | 36.2 µM |  | 48.5 µM |  | > 100 µM |  | > 100 µM |  | 58.3 µM |  | 49.8 µM |  | 38.5 µM
8 | Cn1ncnc1[C@H]1c2n[nH]c(=O)c3cc(F)cc(c23)N[C@@H]1c1ccc(F)cc1 | 28.6 µM | > 100 µM | > 80.4 µM | > 100 µM | > 100 µM | > 100 µM | > 100 µM | > 100 µM | > 100 µM | > 100 µM | > 100 µM | > 100 µM | > 100 µM | > 100 µM
9 | Cc1ccc(S(=O)(=O)c2c(COC(=O)c3cccc(C)c3)c(-c3ccccc3)nn2C)cc1 | 29.5 µM | > 100 µM | > 100 µM | > 100 µM | > 100 µM | > 100 µM | > 100 µM | > 100 µM | > 100 µM | > 100 µM | > 100 µM | > 100 µM | > 100 µM | > 100 µM
